Laboratory results published in ChEMBL document CHEMBL4725284, “Junceellolide B, a novel inhibitor of Hepatitis B virus” (Bioorg Med Chem, 2020).

Columns and labels:
Hepatitis B virus = test: Antiviral activity against HBV infected in human HepAD38 cells assessed as inhibition of viral DNA at 10 uM incubated for 4 days by SYBR green dye based RT-PCR analysis relative to control; format: functional; settings: HePAD38, 96 h, time 4 day
[1] = Cytotoxicity against human HePAD38 cells assessed as cell viability incubated for 72 hrs by MTT assay; format: cell-based
[2] = Cytotoxicity against human HepG2 cells assessed as cell viability incubated for 72 hrs by MTT assay; format: cell-based

SMILES | inhibition at 10 µM (Hepatitis B virus) [%] | CC50 at 72 h [1] [µM] | CC50 at 72 h [2] [µM]
C=C1CC[C@H](OC(C)=O)[C@]2(C)[C@@H](OC(C)=O)C[C@@H](OC(C)=O)/C(CO)=C\[C@@H]3OC(=O)[C@H](C)[C@@]3(O)[C@@H](OC(C)=O)[C@@H]12 | 0 | > 100 | > 100
C=C1CC[C@H](OC(C)=O)[C@]2(C)[C@@H](OC(C)=O)C[C@@H](O)/C(C)=C\[C@@H]3OC(=O)[C@H](C)[C@@]3(O)[C@@H](OC(C)=O)[C@@H]12 | 12 | > 100 | > 100
C=C1CC[C@H](OC(C)=O)[C@]2(C)[C@@H](OC(=O)COC(C)=O)/C=C\C(=C)[C@H](Cl)[C@@H]3OC(=O)[C@H](C)[C@@]3(O)[C@@H](OC(C)=O)[C@@H]12 | 6 | > 100 | > 100
CC(=O)OCC1=C/[C@@H]2OC(=O)[C@H](C)[C@@]2(O)[C@@H](OC(C)=O)[C@H]2[C@]3(CC[C@H](OC(C)=O)[C@]2(C)[C@@H](OC(C)=O)/C=C\1)CO3 | 0 | > 100 | > 100
C=C1C[C@H](OC(C)=O)[C@H](OC(C)=O)[C@]2(C)[C@@H](OC(C)=O)/C=C/C(=C)[C@H](Cl)[C@@H]3OC(=O)[C@H](C)[C@@]3(O)[C@@H](OC(C)=O)[C@@H]12 [FRAJUNOLIDE H] | 25 | > 100 | > 100
C=C1/C=C/[C@H](OC(=O)CC)[C@@]2(C)[C@@H](OC(C)=O)[C@@H](OC(C)=O)C[C@]3(CO3)[C@@H]2[C@H](OC(C)=O)[C@]2(O)[C@@H](C)C(=O)O[C@H]2[C@H]1Cl | 0 | > 100 | > 100
C=C1[C@H](Cl)[C@@H]2OC(=O)[C@H](C)[C@]23O[C@@H]1[C@@H](O)[C@H](OC(C)=O)[C@@]1(C)[C@@H](OC(C)=O)CC[C@]2(CO2)[C@@H]1[C@@H]3OC(C)=O | 0 | > 100 | > 100
C=C1/C=C\[C@H](OC(C)=O)[C@@]2(C)[C@@H](OC(C)=O)CC[C@]3(CO3)[C@@H]2[C@H](OC(C)=O)[C@]2(O)[C@@H](C)C(=O)O[C@H]2[C@H]1Cl | 0 | > 100 | > 100
C=C1[C@H]2O[C@H]2[C@H](OC(C)=O)[C@@]2(C)[C@@H](OC(C)=O)CC[C@]3(CO3)[C@@H]2[C@H](OC(C)=O)[C@]2(O)[C@@H](C)C(=O)O[C@H]2[C@H]1Cl | 29 | > 100 | > 100
C=C1CC[C@H](OC(C)=O)[C@]2(C)[C@@H](OC(C)=O)C[C@@]3(O)O[C@@]4([C@H](C=C3CO)OC(=O)[C@@H]4C)[C@@H](OC(C)=O)[C@@H]12 | 0 | > 100 | > 100
CC(=O)OCC1=C/[C@@H]2OC(=O)[C@H](C)[C@@]2(O)[C@@H](OC(C)=O)[C@H]2[C@]3(CC[C@H](OC(C)=O)[C@]2(C)[C@@H](OC(=O)COC(=O)CC(C)C)/C=C\1)CO3 | 0 | > 100 | > 100
C=C1CC[C@H](OC(C)=O)[C@]2(C)[C@@H](OC(C)=O)C[C@@H](OC(C)=O)/C(CCl)=C\[C@@H]3OC(=O)[C@H](C)[C@@]3(O)[C@@H](OC(C)=O)[C@@H]12 | 0 | > 100 | > 100
CC(=O)OCC(=O)O[C@H]1/C=C\C(CCl)=C/[C@@H]2OC(=O)[C@H](C)[C@@]2(O)[C@@H](OC(C)=O)[C@H]2[C@@](O)(CCl)CC[C@H](OC(C)=O)[C@]12C | 58 | > 100 | > 100
C=C1[C@H](Cl)[C@@H]2OC(=O)[C@H](C)[C@]23O[C@@H]1[C@@H](OC(C)=O)[C@H](OC(C)=O)[C@@]1(C)[C@@H](OC(C)=O)CC[C@]2(CO2)[C@@H]1[C@@H]3OC(C)=O | 17 | > 100 | > 100
C=C1/C=C/[C@H](OC(C)=O)[C@@]2(C)[C@@H](OC(C)=O)C[C@H](OC(C)=O)[C@]3(CO3)[C@@H]2[C@H](OC(C)=O)[C@]2(O)[C@@H](C)C(=O)O[C@H]2[C@H]1Cl | 1 | > 100 | > 100
C=C1CC[C@H](OC(C)=O)[C@]2(C)[C@@H](OC(C)=O)C[C@@]3(O)O[C@]4([C@@H](C)C(=O)O[C@H]4[C@@H](Cl)C3=C)[C@@H](OC(C)=O)[C@@H]12 | 40 | > 100 | > 100
C=C1[C@@H](OC(C)=O)C[C@H](OC(C)=O)[C@]2(C)[C@@H](OC(C)=O)C[C@@H](OC(C)=O)/C(C)=C\[C@@H]3OC(=O)[C@H](C)[C@@]3(O)[C@@H](OC(C)=O)[C@@H]12 | 0 | > 100 | > 100
